Source: patent publication US8697685B2, “Chemical compounds” (GlaxoSmithKline LLC, priority 2008, dated 2014)

Target: T1, full length PDK1 (Homo sapiens, UniProt O15530)
T1 construct: Full-length human 3-Phosphoinositide Dependent protein Kinase-1; made in house; host or cells: baculovirus / Sf9 insect cells
T1 sequence (O15530 1-556): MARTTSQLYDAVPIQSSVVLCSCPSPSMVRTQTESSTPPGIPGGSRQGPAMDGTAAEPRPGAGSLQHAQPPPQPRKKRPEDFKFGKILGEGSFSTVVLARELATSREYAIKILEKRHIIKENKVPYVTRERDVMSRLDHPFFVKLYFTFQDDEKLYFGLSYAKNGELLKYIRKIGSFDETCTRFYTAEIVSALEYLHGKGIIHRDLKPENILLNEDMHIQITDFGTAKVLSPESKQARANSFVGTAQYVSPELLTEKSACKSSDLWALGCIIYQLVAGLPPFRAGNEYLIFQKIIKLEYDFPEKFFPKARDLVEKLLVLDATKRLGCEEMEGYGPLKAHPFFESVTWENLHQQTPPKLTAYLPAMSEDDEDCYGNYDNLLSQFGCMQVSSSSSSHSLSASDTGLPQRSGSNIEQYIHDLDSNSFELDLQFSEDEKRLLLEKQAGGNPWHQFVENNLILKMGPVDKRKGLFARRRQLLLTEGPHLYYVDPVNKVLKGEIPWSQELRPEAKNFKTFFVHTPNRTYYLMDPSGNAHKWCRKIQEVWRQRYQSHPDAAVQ
Test: PDK1 enzyme assays (substrate phosphorylation: LEADseeker scintillation proximity, TR-FRET, PDKtide)
Format: biochemical
Settings: in at least one experimental run, read-out: IC50 against full length PDK1
Protocol: Substrate phosphorylation assays are carried out as follows:
Biotinylated-hAKT1: Human AKT1 (containing amino acid residues 136-480, as annotated by National Center for Biotechnology Information (NCBI) accession number AAL55732.1, with a MetLysLysHis6 N-terminal addition) is purified to >90% from lysate of baculovirus expression by Nickel Chelating ProBond resin (InVitrogen), Q-Sepharose Fast Flow, and Superdex 200 size exclusion chromatography. Biotinylation is achieved using EZ-Link Sulfo-NHS-LC Biotin (Pierce). Samples, in 25 mM HEPES, pH 7.5, 200 mM NaCl, 2 mM DTT, and 30% glycerol are stored at −80C until use.
Full-length human 3-Phosphoinositide Dependent protein Kinase-1 (hPDK1; National Center for Biotechnology Information (NCBI) accession number AAH39158.1 with a MetGlyHis6 N-terminal addition) is purified from baculovirus expression in Sf9 cells. Purity of approximately 80% is achieved by the use of chelation chromatography (Ni-NTA Superflow) and desalting columns. Samples, in 25 mM HEPES, 150 mM NaCl, 2.5 mM DTT, 0.05% Triton, 30% glycerol, pH 8.0, are stored at −80° C. until use.
The 39 amino acid biotinylated-PDKtide peptide Seq. ID No. 1: (Biotin-Ahx-[…]) was custom synthesized by 21st Century Biochemicals. […] The concentration was confirmed by quantitative amino acid analysis.
Scintillation Proximity (LEADseeker) Kinase Assay of Purified hPDK1:
Assays are performed in 384-well microtiter plates (Greiner, Catalog No. 784075). The reaction volume (10 μl) contains, in final concentrations, 25 mM MOPS (pH 7.5), 10 mM MgCl2, 50 mM KCl, 0.1 mg/ml BSA, 1 μM ATP, 3 uCi/ml ^33PγATP, 5 mM DTT, 1 mM CHAPS or 0.05% Tween20, 0.35 μM AKT1 biotinylated protein, and 10 nM hPDK1.
Compounds, titrated in DMSO, are evaluated at eleven concentrations ranging from 50 μM to 2 μM. […] Reactions are stopped after 3 hours at room temperature by the addition of 50 mM EDTA, 5 mg/ml LEADseeker beads (GE Healthcare) in PBS (10 ul). Beads are allowed to settle overnight, and samples are imaged on Viewlux (PerkinElmer).
The data for compound concentration responses were plotted as % Inhibition, calculated with the data reduction formula 100*(1−[(U1−C2)/(C1−C2)]), versus concentration of compound, where
Data were fitted to the curve described by:
TR-FRET Kinase Assay of Purified hPDK1:
Assays are performed in 384-well microtiter plates (Greiner, Catalog No. 784076).
As previously described for the Scintillation Proximity protocol, hPDK1 is pre-incubated (30 minutes at room temperature) with compounds before initiating phosphorylation of AKT1 by addition of substrate to the hPDK1 and compound mix. Reactions are stopped after 4-6 hours at room temperature by the addition to final concentrations of 0.02 M EDTA, 0.0875 μM Streptavidin APC (PerkinElmer), 0.03 μM AKT1 (phospho T308) antibody (Abcam Inc.), 0.00375 μM Lance Eu-labeled anti rabbit IgG Antibody (PerkinElmer). Antibody binding reaches equilibrium in 30 minutes before signal is read on an EnVision™ 2103 Multilabel Reader (PerkinElmer). APC Signals are normalized to Europium signal. Data processing is the same as described for the Scintillation Proximity assay with the exception of the generation of the “C2” control by addition of buffer without hPDK1 to control wells at t=0 instead of EDTA.
Scintillation Proximity (LEADseeker) Kinase Assay of Purified hPDK1 using Biotinylated-PDKtide Peptide:
Assays are performed in 384-well microtiter plates (Greiner, Catalog No. 784075). The reaction volume (10 μl) contains, in final concentrations, 25 mM MOPS (pH 7.5), 10 mM MgCl2, 50 mM KCl, 0.1 mg/ml BSA, 1 μM ATP, 3 uCi/ml ^33PγATP, 5 mM DTT, 0.5 mM CHAPS, 1 μM biotinylated-PDKtide peptide, and 0.5 nM hPDK1.
Compounds, titrated in DMSO, are evaluated at eleven concentrations ranging from 25 μM to 0.4 pM. […] Reactions are stopped after 4 hours at room temperature by the addition of 50 mM EDTA, 5 mg/ml LEADseeker beads (GE Healthcare) in PBS (10 ul).

| SMILES | IC50 [nM] |
| --- | --- |
| Nc1nc(NCc2ccccc2)cc(-c2ccc3c(N)n[nH]c3c2)n1 [Example 2, 6-(3-Amino-1H-indazol-6-yl)-N^4-(phenylmethyl)-2,4-pyrimidinediamine] | < 100 |
| CC[C@@H]1CCCN1c1cc(-c2ccc3c(N)n[nH]c3c2)nc(N)n1 [Example 46, 6-{2-Amino-6-[(2R)-2-ethyl-1-pyrrolidinyl]-4-pyrimidinyl}-1H-indazol-3-amine] | < 150 |
| Nc1nc(NC2CC2)cc(-c2ccc3c(N)n[nH]c3c2)n1 [Example 51, 6-(3-Amino-1H-indazol-6-yl)-N^4-cyclopropyl-2,4-pyrimidinediamine] | < 100 |
| C[C@@H]1CC[C@H](C(=O)NCCc2ccccc2)CN1c1cc(-c2ccc3c(N)n[nH]c3c2)nc(N)n1 [Example 149, (3S,6R)-1-[2-Amino-6-(3-amino-1H-indazol-6-yl)-4-pyrimidinyl]-6-methyl-N-(2-phenylethyl)-3-piperidinecarboxamide] | < 20 |
| CC[C@@H]1COCCN1c1cc(-c2cc(NC3CCCC3)c3c(N)n[nH]c3c2)nc(NC)n1 [Example 181, N^4-Cyclopentyl-6-[6-[(3R)-3-ethyl-4-morpholinyl]-2-(methylamino)-4-pyrimidinyl]-1H-indazole-3,4-diamine] | < 150 |
| CCOc1cc(-c2cc(N3CCOC[C@H]3CC)nc(NC)n2)cc2[nH]nc(N)c12 [Example 184, 6-[6-[(3R)-3-Ethyl-4-morpholinyl]-2-(methylamino)-4-pyrimidinyl]-4-(ethyloxy)-1H-indazol-3-amine] | < 150 |
| CCOc1cc(-c2cc(N3CCOC[C@H]3C(C)C)nc(N)n2)cc2[nH]nc(N)c12 [Example 199, 6-{2-Amino-6-[(3R)-3-(1-methylethyl)-4-morpholinyl]-4-pyrimidinyl}-4-(ethyloxy)-1H-indazol-3-amine] | < 150 |
| Nc1nc(-c2ccc3c(N)n[nH]c3c2)cc(N2CCC[C@@H](NC(=O)OC3CCC3)C2)n1 [Example 209, Cyclobutyl{(3R)-1-[2-amino-6-(3-amino-1H-indazol-6-yl)-4-pyrimidinyl]-3-piperidinyl}carbamate] | < 50 |
| CC(C)OC(=O)N[C@@H]1CCCN(c2cc(-c3ccc4c(N)n[nH]c4c3)nc(N)n2)C1 [Example 217, 1-Methylethyl{(3R)-1-[2-amino-6-(3-amino-1H-indazol-6-yl)-4-pyrimidinyl]-3-piperidinyl}carbamate] | < 50 |

The remaining lines, values ahead:

| IC50 [nM] | SMILES |
| --- | --- |
| < 100 | Nc1nc(NCC2CCCCC2)cc(-c2ccc3c(N)n[nH]c3c2)n1 [Example 38, 6-(3-Amino-1H-indazol-6-yl)-N^4-(cyclohexylmethyl)-2,4-pyrimidinediamine] |
| < 100 | CCCNc1cc(-c2ccc3c(N)n[nH]c3c2)nc(N)n1 [Example 74, 6-(3-Amino-1H-indazol-6-yl)-N^4-propyl-2,4-pyrimidinediamine] |
| < 20 | CNc1nc(-c2ccc3c(N)n[nH]c3c2)cc(N2C[C@@H](C(=O)NCc3ccccc3)CC[C@H]2C)n1 [Example 80, (3S,6R)-1-[6-(3-Amino-1H-indazol-6-yl)-2-(methylamino)-4-pyrimidinyl]-6-methyl-N-(phenylmethyl)-3-piperidinecarboxamide] |
| < 20 | CNc1nc(-c2cc(F)c3c(N)n[nH]c3c2)cc(N2C[C@@H](C(=O)NC3CCCCC3)CC[C@H]2C)n1 [Example 85, (3S,6R)-1-[6-(3-Amino-4-fluoro-1H-indazol-6-yl)-2-(methylamino)-4-pyrimidinyl]-N-cyclohexyl-6-methyl-3-piperidinecarboxamide] |
| < 50 | CC1CCC(NC(=O)OC2CCCC2)CN1c1cc(-c2ccc3c(N)n[nH]c3c2)nc(N)n1 (stereo not drawn) [Example 120, Cis-cyclopentyl{1-[2-amino-6-(3-amino-1H-indazol-6-yl)-4-pyrimidinyl]-6-methyl-3-piperidinyl}carbamate] |
| < 20 | C[C@@H]1CC[C@H](C(=O)NC2CCCC2)CN1c1cc(-c2ccc3c(N)n[nH]c3c2)nc(N)n1 [Example 142, (3S,6R)-1-[2-amino-6-(3-amino-1H-indazol-6-yl)-4-pyrimidinyl]-N-cyclopentyl-6-methyl-3-piperidinecarboxamide] |
| < 150 | COc1cc(-c2cc(N3CCOC[C@H]3C)nc(N)n2)cc2[nH]nc(N)c12 [Example 200, 6-{2-Amino-6-[(3R)-3-methyl-4-morpholinyl]-4-pyrimidinyl}-4-(methyloxy)-1H-indazol-3-amine] |
| < 50 | CNc1nc(-c2cc(OC)c3c(N)n[nH]c3c2)cc(N2CCC[C@@H](NC(=O)OC(C)(C)C)C2)n1 [Example 203, 1,1-Dimethylethyl{(3R)-1-[6-[3-amino-4-(methyloxy)-1H-indazol-6-yl]-2-(methylamino)-4-pyrimidinyl]-3-piperidinyl}carbamate] |
| < 50 | Nc1nc(-c2ccc3c(N)n[nH]c3c2)cc(N2CCC[C@@H](N3CCOC3=O)C2)n1 [Example 211, 3-{(3R)-1-[2-Amino-6-(3-amino-1H-indazol-6-yl)-4-pyrimidinyl]-3-piperidinyl}-1,3-oxazolidin-2-one] |
